5 compounds from patent publication US20250197372A1 (priority 2020, published 2025) can be followed below.

Common to all, as to type: biochemical
In experiment [1] the target is recombinant human GAA (acid alpha-glucosidase) (Homo sapiens, UniProt P10253). The experiment can be described thus: Acid alpha-glucosidase (GAA) assay (4-methylumbelliferyl-alpha-D-pyranoside substrate, fluorescence). The essentials: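 IC50 from 4-PL curve fit of percent inhibition, based on fluorescence (365/440 nm) of released methylumbelliferone relative to uninhibited enzyme. Compound dilutions and human GAA incubated 60 min, 37 °C, before 20 min substrate reaction at 37 °C, quenched at pH 10.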

The target in experiment [2] is T1, recombinant alpha-glucosidase I (human full-length glucosidase I, Glu 1) (Homo sapiens, UniProt Q13724).
T1 construct: 6-His (C); made in house; host or cells: HEK-293T cells transduced with BacMam virus (virus raised in Sf9)
T1 sequence (Q13724 1-837): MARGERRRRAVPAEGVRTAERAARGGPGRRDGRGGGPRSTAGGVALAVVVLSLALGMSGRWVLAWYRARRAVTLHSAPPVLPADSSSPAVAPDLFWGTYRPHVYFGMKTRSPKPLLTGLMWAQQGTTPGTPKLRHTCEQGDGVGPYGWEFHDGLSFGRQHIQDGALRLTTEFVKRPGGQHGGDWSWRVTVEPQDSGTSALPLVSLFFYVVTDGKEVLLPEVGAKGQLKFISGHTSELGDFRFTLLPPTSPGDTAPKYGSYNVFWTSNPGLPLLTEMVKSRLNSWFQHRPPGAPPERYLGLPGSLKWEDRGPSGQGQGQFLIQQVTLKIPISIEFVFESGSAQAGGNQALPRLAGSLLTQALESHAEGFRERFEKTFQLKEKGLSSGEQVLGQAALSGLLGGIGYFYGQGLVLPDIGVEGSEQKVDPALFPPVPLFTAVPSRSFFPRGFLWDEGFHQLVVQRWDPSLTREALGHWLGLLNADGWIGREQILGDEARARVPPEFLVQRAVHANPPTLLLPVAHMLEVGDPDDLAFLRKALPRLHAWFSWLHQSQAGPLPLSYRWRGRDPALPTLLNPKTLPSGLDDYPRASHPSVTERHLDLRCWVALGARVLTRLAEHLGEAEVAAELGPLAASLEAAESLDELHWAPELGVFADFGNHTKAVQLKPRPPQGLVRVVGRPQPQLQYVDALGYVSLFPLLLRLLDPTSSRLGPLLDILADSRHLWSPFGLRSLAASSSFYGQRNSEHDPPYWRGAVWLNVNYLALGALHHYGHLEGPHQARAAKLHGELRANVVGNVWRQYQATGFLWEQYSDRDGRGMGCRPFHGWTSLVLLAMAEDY
Nature of the experiment: Alpha-glucosidase I assay (Amplex Red glucose detection, synthetic trisaccharide substrate). Conditions: Glucosidase 1; read-out: Glu 1 IC50. The procedure, abridged: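 Compound dilution series incubated 60 min at 37° C with recombinant His-tagged human glucosidase I ([…]), after which trisaccharide substrate analog was added for 90 min at 37° C. Reaction quenched with 1.5M Tris pH 8; D-glucose detected by Amplex Red fluorescence, 560/590 nm. 4-PL curve fit of percent inhibition gave IC50.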

The target in experiment [3] is T2, recombinant alpha-glucosidase II (murine full-length glucosidase II, alpha and beta subunits, Glu 2) (Mus musculus, UniProt Q8BHN3).
T2 construct: made in house; host or cells: HEK-293T cells transduced with BacMam viruses (75% alpha, 25% beta); protein harvested from culture supernatant
Nature of the experiment: Alpha-glucosidase II assay (4-methylumbelliferyl-alpha-D-pyranoside substrate, fluorescence). Conditions: Glucosidase 2; read-out: Glu2 IC50.

T2 sequence (O08795 15-521): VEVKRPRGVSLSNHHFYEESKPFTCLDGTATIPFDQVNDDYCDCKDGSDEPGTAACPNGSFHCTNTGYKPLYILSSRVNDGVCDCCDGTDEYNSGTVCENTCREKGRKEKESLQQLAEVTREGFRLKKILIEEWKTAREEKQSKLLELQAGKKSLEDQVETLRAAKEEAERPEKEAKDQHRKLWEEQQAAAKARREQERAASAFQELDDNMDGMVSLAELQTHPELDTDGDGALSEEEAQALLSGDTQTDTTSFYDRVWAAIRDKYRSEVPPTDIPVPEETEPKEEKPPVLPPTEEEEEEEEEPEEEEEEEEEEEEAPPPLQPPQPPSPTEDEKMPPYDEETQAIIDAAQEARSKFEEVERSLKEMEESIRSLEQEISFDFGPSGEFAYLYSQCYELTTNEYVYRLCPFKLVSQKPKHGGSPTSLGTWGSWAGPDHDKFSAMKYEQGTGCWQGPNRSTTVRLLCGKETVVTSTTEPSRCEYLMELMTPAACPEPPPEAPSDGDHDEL
T2 sequence (Q8BHN3 33-944): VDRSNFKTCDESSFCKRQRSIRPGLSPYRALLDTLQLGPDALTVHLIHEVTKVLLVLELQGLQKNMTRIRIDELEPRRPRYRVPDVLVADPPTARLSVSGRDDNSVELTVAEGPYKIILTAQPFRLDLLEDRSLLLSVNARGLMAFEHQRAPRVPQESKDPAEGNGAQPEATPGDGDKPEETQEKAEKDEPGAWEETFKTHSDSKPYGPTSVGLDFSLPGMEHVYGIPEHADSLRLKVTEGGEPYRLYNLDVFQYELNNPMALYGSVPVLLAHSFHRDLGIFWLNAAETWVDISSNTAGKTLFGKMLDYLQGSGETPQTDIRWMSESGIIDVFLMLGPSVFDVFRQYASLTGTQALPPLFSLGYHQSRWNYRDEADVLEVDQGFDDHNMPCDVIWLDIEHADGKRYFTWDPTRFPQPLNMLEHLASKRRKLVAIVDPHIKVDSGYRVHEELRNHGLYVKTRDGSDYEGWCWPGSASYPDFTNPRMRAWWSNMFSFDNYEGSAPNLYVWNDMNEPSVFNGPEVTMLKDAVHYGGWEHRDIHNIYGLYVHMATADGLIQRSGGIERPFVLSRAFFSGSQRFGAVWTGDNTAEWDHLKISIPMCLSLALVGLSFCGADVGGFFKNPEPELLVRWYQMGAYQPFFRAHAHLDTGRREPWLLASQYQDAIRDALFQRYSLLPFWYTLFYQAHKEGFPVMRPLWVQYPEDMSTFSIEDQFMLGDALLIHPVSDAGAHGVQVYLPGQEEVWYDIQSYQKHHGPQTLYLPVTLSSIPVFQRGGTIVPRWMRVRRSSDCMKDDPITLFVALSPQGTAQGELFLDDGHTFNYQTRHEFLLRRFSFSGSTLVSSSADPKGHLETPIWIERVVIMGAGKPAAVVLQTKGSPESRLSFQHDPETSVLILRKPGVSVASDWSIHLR

For the compound `OC[C@@H]1[C@@H](O)[C@H](O)[C@@H](O)CN1Cc1cccc(CNc2ccc(-c3ncccn3)cc2)c1` [Compound 1084, (2R,3R,4R,5S)-2-(hydroxymethyl)-1-{[3-({[4-(pyrimidin-2-yl)phenyl]amino}methyl)phenyl]methyl}piperidine-3,4,5-triol], the IC50 (commonly the point on the concentration scale where inhibition reaches its midpoint) turned out to be 2350 nM in experiment [1], 79 nM in experiment [2] and 26600 nM in experiment [3].
On the same counts, the results for `N#Cc1cc(NCc2ccc(CN3C[C@H](O)[C@@H](O)[C@H](O)[C@H]3CO)cc2)cc(-c2ncccn2)c1` [Compound 1065, 3-(pyrimidin-2-yl)-5-{[(4-{[(2R,3R,4R,5S)-3,4,5-trihydroxy-2-(hydroxymethyl)piperidin-1-yl]methyl}phenyl)methyl]amino}-benzonitrile] are 90 nM, 9 nM and 6 nM.
For the compound `OC[C@@H]1[C@@H](O)[C@H](O)[C@@H](O)CN1Cc1cccc(CNc2ccc(N3CCOCC3)cc2)c1` [Compound 1081, (2R,3R,4R,5S)-2-(hydroxymethyl)-1-{[3-({[4-(morpholin-4-yl)phenyl]amino}methyl)phenyl]methyl}piperidine-3,4,5-triol], the IC50 came out at 1270 nM in experiment [1], 169 nM in experiment [2] and 70400 nM in experiment [3].
For the compound `O=[N+]([O-])c1cc(-c2ncccn2)ccc1NCc1ccc(CN2C[C@H](O)[C@@H](O)[C@H](O)[C@H]2CO)cc1` [Compound 1102, (2R,3R,4R,5S)-2-(hydroxymethyl)-1-{[4-({[2-nitro-4-(pyrimidin-2-yl)phenyl]amino}methyl)phenyl]methyl}piperidine-3,4,5-triol], the IC50 in experiment [1] was 28 nM; in experiment [2] it was less than 1 nM; in experiment [3], 64 nM.
On the same counts, the results for `O=[N+]([O-])c1cc(-c2ncc[nH]2)ccc1NCCc1ccc(CCN2C[C@H](O)[C@@H](O)[C@H](O)[C@H]2CO)cc1` [Compound 1078, (2R,3R,4R,5S)-2-(hydroxymethyl)-1-{2-[4-(2-{[4-(1H-imidazol-2-yl)-2-nitrophenyl]amino}ethyl)phenyl]ethyl}piperidine-3,4,5-triol] are 343 nM, 200 nM and 95 nM.
